According to ChEMBL document CHEMBL1201862, “PubChem BioAssay data set” (2004):
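Five concentrations, 48 hours, 96-well plates. The concentration for 50% growth inhibition is given as GI50.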 Activity calls are given as the source filed them. Rule as the data show it: active = GI50 up to about 1.1 µM and inactive = higher. Where a SMILES comes first, the peptide text is derived from it. The star is where a group is joined. Boc = CC(C)(C)OC(=O)*

Columns and labels:
Experiment in all cases: NCI anticancer screen, dose series, 48 h
786-0 = system: 786-0
CAKI-1 = system: CAKI-1
HCC 2998 = system: HCC 2998
HOP-62 = system: HOP-62
HOP-92 = system: HOP-92
KM12 = system: KM12
M14 = system: M14
MOLT-4 = system: MOLT-4
OVCAR-3 = system: OVCAR-3
OVCAR-4 = system: OVCAR-4
SF-295 = system: SF-295
SK-MEL-28 = system: SK-MEL-28
SK-OV-3 = system: SK-OV-3
SNB-75 = system: SNB-75
SW-620 = system: SW-620
TK-10 = system: TK-10
U-251 = system: U-251
UACC-257 = system: UACC-257
MCF7 = system: MCF7
DU-145 = system: DU-145

SMILES | GI50 (786-0) | GI50 (CAKI-1) | GI50 (HCC 2998) | GI50 (HOP-62) | GI50 (HOP-92) | GI50 (KM12) | GI50 (M14) | GI50 (MOLT-4) | GI50 (OVCAR-3) | GI50 (OVCAR-4) | GI50 (SF-295) | GI50 (SK-MEL-28) | GI50 (SK-OV-3) | GI50 (SNB-75) | GI50 (SW-620) | GI50 (TK-10) | GI50 (U-251) | GI50 (UACC-257) | GI50 (MCF7) | GI50 (DU-145)
C/C=C/CC(C)[C@@H](O)[C@H](NC)C(=O)O (stereo partly drawn) | > 100 µM (inactive) | > 100 µM (inactive) | > 100 µM (inactive) | > 100 µM (inactive) | > 100 µM (inactive) | > 100 µM (inactive) | > 100 µM (inactive) | > 100 µM (inactive) | > 100 µM (inactive) | > 100 µM (inactive) | > 100 µM (inactive) | > 100 µM (inactive) | > 100 µM (inactive) | > 100 µM (inactive) | > 100 µM (inactive) | > 100 µM (inactive) | > 100 µM (inactive) | > 100 µM (inactive) |  | 
O=C(/C=C\c1ccc(/C=C/C(=O)Nc2cccc(C3=NCCCN3)c2)cc1)Nc1cccc(C2=NCCCN2)c1 |  |  | 69.2 µM (inactive) | 65.8 µM (inactive) | > 100 µM (inactive) | > 100 µM (inactive) |  | > 100 µM (inactive) | > 100 µM (inactive) | > 100 µM (inactive) | > 100 µM (inactive) | > 100 µM (inactive) | > 100 µM (inactive) | > 69.3 µM (inactive) | 25.4 µM (inactive) |  | > 100 µM (inactive) | > 100 µM (inactive) | 16.3 µM (inactive) | 
O=C(O)c1nn[nH]c1Cl | > 100 µM (inactive) |  | > 100 µM (inactive) | > 100 µM (inactive) |  | > 100 µM (inactive) | > 100 µM (inactive) | > 10 µM (inactive) | > 100 µM (inactive) | > 100 µM (inactive) | > 100 µM (inactive) | > 100 µM (inactive) | > 100 µM (inactive) | > 100 µM (inactive) | > 100 µM (inactive) | > 100 µM (inactive) | > 100 µM (inactive) | > 100 µM (inactive) | > 100 µM (inactive) | > 100 µM (inactive)
Cn1c(=O)c2[nH]c(N=O)nc2n(C)c1=O | > 100 µM (inactive) | > 100 µM (inactive) | > 100 µM (inactive) | > 100 µM (inactive) |  | > 100 µM (inactive) | > 100 µM (inactive) | > 100 µM (inactive) | > 100 µM (inactive) | > 100 µM (inactive) | > 100 µM (inactive) | > 100 µM (inactive) | > 100 µM (inactive) | > 100 µM (inactive) | > 100 µM (inactive) | > 100 µM (inactive) | > 100 µM (inactive) | > 100 µM (inactive) | > 100 µM (inactive) | > 100 µM (inactive)
OCC(O)C(O)C(C=NNc1ncnc2ccc(Br)cc12)=NNc1ncnc2ccc(Br)cc12 (stereo not drawn) | 1.14 µM (inactive) | 2.22 µM (inactive) |  | 5.12 µM (inactive) | 4.3 µM (inactive) | 5.7 µM (inactive) | 3.48 µM (inactive) | 0.282 µM (active) | 0.344 µM (active) | 0.435 µM (active) | 4.74 µM (inactive) |  | 2.59 µM (inactive) | 5.82 µM (inactive) |  | 13.2 µM (inactive) | 1.28 µM (inactive) | 3.52 µM (inactive) | 0.479 µM (active) | 
COc1ccc2cc(C(=O)Nc3ccc(O)c(C(=O)O)c3)ccc2c1OC | > 100 µM (inactive) | > 100 µM (inactive) | > 100 µM (inactive) | > 100 µM (inactive) |  | > 100 µM (inactive) | > 100 µM (inactive) | > 100 µM (inactive) | > 100 µM (inactive) | 72.6 µM (inactive) |  | > 100 µM (inactive) | > 100 µM (inactive) | > 100 µM (inactive) | > 100 µM (inactive) | > 100 µM (inactive) | > 100 µM (inactive) | > 100 µM (inactive) | > 100 µM (inactive) | > 100 µM (inactive)
COc1ccc(N2C(=O)C3c4[nH]c5c(C)cccc5c4C4CCC(C(C)(C)C)CC4C3C2=O)cc1 (stereo not drawn) |  | > 10 µM (inactive) | 2.48 µM (inactive) | > 10 µM (inactive) |  | 5.13 µM (inactive) | > 10 µM (inactive) | 3.47 µM (inactive) | > 10 µM (inactive) | > 10 µM (inactive) | > 10 µM (inactive) | > 10 µM (inactive) | > 10 µM (inactive) | > 10 µM (inactive) | 6.62 µM (inactive) | 9.14 µM (inactive) | > 10 µM (inactive) |  | 3.56 µM (inactive) | > 10 µM (inactive)
N#Cc1c(N2CCCC2)ncn(-c2ccccc2)c1=O | > 100 µM (inactive) | > 100 µM (inactive) | > 100 µM (inactive) | > 100 µM (inactive) | > 100 µM (inactive) | > 100 µM (inactive) | > 100 µM (inactive) | > 100 µM (inactive) | > 100 µM (inactive) | > 100 µM (inactive) | > 100 µM (inactive) | > 100 µM (inactive) | > 100 µM (inactive) | > 100 µM (inactive) | > 100 µM (inactive) | > 100 µM (inactive) | > 100 µM (inactive) | > 100 µM (inactive) |  | > 100 µM (inactive)
CCOC(=O)CCN1C(=O)C(=O)N(c2ccc(OC)cc2)C1=S | > 100 µM (inactive) | > 100 µM (inactive) | 69.2 µM (inactive) | > 100 µM (inactive) | > 100 µM (inactive) | 39.1 µM (inactive) |  | > 100 µM (inactive) |  | 63 µM (inactive) | > 100 µM (inactive) | > 100 µM (inactive) | > 100 µM (inactive) | > 100 µM (inactive) | > 100 µM (inactive) | > 100 µM (inactive) | > 100 µM (inactive) | > 100 µM (inactive) |  | > 100 µM (inactive)
COC(=O)c1cc(S(=O)(=O)NC2=NNC(C)CN2)c(S)cc1Cl (stereo not drawn) | 56.1 µM (inactive) | > 100 µM (inactive) | 42.3 µM (inactive) | > 100 µM (inactive) |  | 40.4 µM (inactive) | 31.5 µM (inactive) | 77.3 µM (inactive) | 38.3 µM (inactive) | 33.9 µM (inactive) | 54.3 µM (inactive) | 36.7 µM (inactive) | > 100 µM (inactive) | 24.7 µM (inactive) | 42.3 µM (inactive) | > 100 µM (inactive) | 37.4 µM (inactive) | > 100 µM (inactive) | 42 µM (inactive) | 78.9 µM (inactive)
CN(C)C(=S)/N=c1\ssc(=S)n1Cc1ccco1 | 3.72 µM (inactive) | 2.01 µM (inactive) | 4.61 µM (inactive) | 2.56 µM (inactive) | > 100 µM (inactive) | 2.06 µM (inactive) | 2.15 µM (inactive) | 2.09 µM (inactive) | 1.15 µM (inactive) | 13.6 µM (inactive) | 2.1 µM (inactive) | 8.07 µM (inactive) | 1.71 µM (inactive) | 0.771 µM (active) | 0.701 µM (active) | 20.6 µM (inactive) | 1.15 µM (inactive) | 3.44 µM (inactive) | 0.49 µM (active) | 
Cc1nnc2n1N=C(c1cc(F)c(Cl)cc1Cl)/C(=C/c1ccc(-c3ccc([N+](=O)[O-])cc3)o1)S2 | 78.3 µM (inactive) | > 100 µM (inactive) | > 100 µM (inactive) | > 100 µM (inactive) | > 100 µM (inactive) | 69.2 µM (inactive) | > 100 µM (inactive) | 29.2 µM (inactive) | > 100 µM (inactive) | 66.5 µM (inactive) | > 100 µM (inactive) | > 100 µM (inactive) | > 100 µM (inactive) |  | 39.6 µM (inactive) |  | 71.8 µM (inactive) | > 100 µM (inactive) | 44 µM (inactive) | 
O=c1[nH]c(=O)n(C2CC(O)C(CO)O2)cc1Oc1ccccc1 (stereo not drawn) | > 100 µM (inactive) | > 100 µM (inactive) |  | > 100 µM (inactive) |  | > 100 µM (inactive) | > 100 µM (inactive) | > 100 µM (inactive) | > 100 µM (inactive) | > 100 µM (inactive) | 47.4 µM (inactive) | > 100 µM (inactive) | > 100 µM (inactive) | > 100 µM (inactive) |  | > 100 µM (inactive) | > 100 µM (inactive) | > 100 µM (inactive) | > 100 µM (inactive) | > 100 µM (inactive)
Cn1c(N)cc(=O)nc1N | > 100 µM (inactive) | > 100 µM (inactive) | > 100 µM (inactive) | > 100 µM (inactive) |  | > 100 µM (inactive) | > 100 µM (inactive) | > 100 µM (inactive) | > 100 µM (inactive) | > 100 µM (inactive) | > 100 µM (inactive) | > 100 µM (inactive) | > 100 µM (inactive) | > 100 µM (inactive) | > 100 µM (inactive) | > 100 µM (inactive) | > 100 µM (inactive) |  | > 100 µM (inactive) | > 100 µM (inactive)
COC(=O)C(Cc1c[nH]c2ccccc12)NC(=O)C(Cc1c[nH]c2ccccc12)NC(=O)C(Cc1c[nH]c2ccccc12)NC(=O)C(Cc1c[nH]c2ccccc12)NC(=O)C(Cc1c[nH]c2ccccc12)NC(=O)C(Cc1c[nH]c2ccccc12)NC(=O)C(Cc1c[nH]c2ccccc12)NC(=O)OC(C)(C)C (stereo not drawn) (Boc-WWWWWWW-OMe; configuration not given here) | 26.3 µM (inactive) | > 100 µM (inactive) | > 100 µM (inactive) | > 100 µM (inactive) |  |  | 21.7 µM (inactive) | 40.6 µM (inactive) | > 100 µM (inactive) | > 100 µM (inactive) |  | 35.6 µM (inactive) |  | 17.3 µM (inactive) | > 100 µM (inactive) | 43.6 µM (inactive) | 37.4 µM (inactive) | 67.5 µM (inactive) | 59.4 µM (inactive) | 64 µM (inactive)
